Assay results reported in patent publication US5763577A, “Substituted tetra- and pentapeptide inhibitors of protein: farnesyl transferase” (Warner-Lambert Company, priority 1996, dated 1998).
Where a name gives a salt, the structure may show the parent alone. Non-standard residues stand in square brackets, D forms with d. Residues, ends and D or L forms follow the SMILES beside them. *: point of attachment. Cbz = O=C(OCc1ccccc1)*; Bn = c1ccc(C*)cc1

Target: T1, rat brain farnesyl protein transferase (Rattus norvegicus, UniProt Q02293+Q04631)
T1 construct: 40-fold purified rat brain farnesyl protein transferase; from tissue; host or cells: rat brain
Assay: PFT inhibitory activity assay (3H-farnesyl pyrophosphate, biotinyl peptide, streptavidin beads)
Format: biochemical
Details: 30 mM potassium phosphate buffer pH 7.4; FPP 0.12 μM; (biotinyl)-Ahe-Tyr-Lys-Cys-Val-Ile-Met 0.1 μM; 37° C, 30 minutes
Experimental: The PFT inhibitory activity of compounds of Formula I was assayed in 30 mM potassium phosphate buffer, pH 7.4, containing 7 mM DTT, 1.2 MM MgCl2, 0.1 mM leupeptin, 0.1 mM pepstatin, and 0.2 mM phenylmethylsulfonyl fluoride. Assays were performed in 96 well plates (Wallec) and employed solutions composed of varying concentrations of a compound of Formula I in 100% DMSO. Upon addition of both substrates, radiolabeled farnesyl pyrophosphate ([1-^3 H], specific activity 15-30 Ci/mmol, final concentration 0.12 μM) and (biotinyl)-Ahe-Tyr-Lys-Cys-Val-Ile-Met peptide (final concentration 0.1 μM), the Seq ID NO:59 enzyme reaction was started by addition of 40-fold purified rat brain farnesyl protein transferase. After incubation at 37° C for 30 minutes, the reaction was terminated by diluting the reaction 2.5-fold with a stop buffer containing 1.5M magnesium acetate, 0.2M H3 PO4, 0.5% BSA, and strepavidin beads (Amersham) at a concentration of 1.3 mg/mL. After allowing the plate to settle for 30 minutes at room temperature, radioactivity was quantitated on a microBeta counter (model 1450, Wallec).

SMILES | IC50
C[C@@H](NC(=O)[C@H](COCc1ccccc1)NC(=O)[C@H](Cc1ccc(OCc2ccccc2)cc1)NC(=O)[C@H](Cc1c[nH]cn1)NC(=O)OCc1ccccc1)C(=O)O [Cbz--His--Tyr(OBn)--Ser(OBn)--DAla--OH, N-[N-[N-[N-[(Phenylmethoxy)carbonyl]-L-histidyl]-O-(phenylmethyl)-L-tyrosyl]-O-(phenylmethyl)-L-seryl]-D-alanine, monohydrochloride] (Cbz-HY(Bn)S(Bn)[dA]-OH) | 404 nM
COC(=O)[C@@H](C)NC(=O)[C@H](COCc1ccccc1)NC(=O)[C@H](Cc1ccc(OCc2ccccc2)cc1)NC(=O)[C@H](Cc1c[nH]cn1)NC(=O)OCc1ccccc1 [Cbz--His--Tyr(OBn)--Ser(OBn)--DAla--OM2, N-[N-[N-[N-[(Phenylmethoxy)carbonyl]-L-histidyl]-O-(phenylmethyl)-L-tyrosyl]-O-(phenylmethyl)-L-seryl]-D-alanine, methyl ester] (Cbz-HY(Bn)S(Bn)[dA]-OMe) | 142 nM
